Results on 22 molecules are retold here after PubChem BioAssay AID298 (DTP/NCI, 2004).

In this experiment the test system is MX-1 breast xenograft, intrarenal, nude mice, tumor weight. As to the kind of experiment: NCI In Vivo Anticancer Drug Screen. Data for tumor model Human Mammary Carcinoma MX-1 Xenograft (intrarenal inoculation) in NU/NU BALB/C (nude) mice. To be noted: endpoint: mean tumor weight change, higher = larger tumour. An outline of the steps:
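Compounds were given to mice carrying transplanted tumors, and tumor size or survival was measured. Each value is the treated-group measurement (T) divided by the vehicle-treated control-group measurement (C).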
(A xenograft is tissue or cells of one species grown in another, often human tumour cells in immunodeficient mice.)

[1] abbreviates: dose: 200.0 mg/kg/injection, schedule: Q04DX003 (sc), vehicle: saline.
Where [2] appears, read: dose: 400.0 mg/kg/injection, schedule: Q04DX003 (sc), vehicle: saline.
The mark [3] stands for this setting: dose: 100.0 mg/kg/injection, schedule: Q04DX003 (sc), vehicle: saline.
[4] abbreviates: dose: 150.0 mg/kg/injection, schedule: Q04DX003 (ip), vehicle: saline.
The mark [5] stands for this setting: dose: 300.0 mg/kg/injection, schedule: Q04DX003 (ip), vehicle: saline.

“And” between values parts separate entries of the source, which are not always exact repeats. Equal entries are not always repeated. Records with an inconclusive call do not appear.

Turning to `O=C(Nc1cccc(O)c1)C(Cl)=C(Cl)Cl`, the T/C is, setting by setting: (dose: 6.25 mg/kg/injection, schedule: Q04DX003 (ip), vehicle: other) 66 % of control; (dose: 12.5 mg/kg/injection, schedule: Q04DX003 (ip), vehicle: DMSO) 112 % of control; (dose: 12.5 mg/kg/injection, schedule: Q04DX003 (ip), vehicle: other) 68 % of control; (dose: 25.0 mg/kg/injection, schedule: Q04DX003 (ip), vehicle: DMSO) 116 % of control; (dose: 25.0 mg/kg/injection, schedule: Q04DX003 (ip), vehicle: other) 45 % of control; (dose: 50.0 mg/kg/injection, schedule: Q04DX003 (ip), vehicle: DMSO) 47 % of control.

In the case of `CCCCCCSc1nc(COC(=O)NC)c(COC(=O)NC)n1C`, the T/C by setting is: (dose: 33.7 mg/kg/injection, schedule: Q04DX003 (ip), vehicle: saline) 100 % of control; (dose: 135.0 mg/kg/injection, schedule: Q04DX003 (ip), vehicle: saline) 23 % of control.

Turning to `O=CC(NC(=O)N(CCCl)N=O)C(O)C(O)C(O)CO` (centres undefined), the T/C was 59 % of control (dose: 3.0 mg/kg/injection, schedule: Q01DX010 (sc), vehicle: Klucel (hydroxypropylcellulose) (HPC)) and 51 % of control (dose: 6.0 mg/kg/injection, schedule: Q01DX010 (sc), vehicle: Klucel (hydroxypropylcellulose) (HPC)).

`c1ccc2c(NCCCCCCCCNc3c4ccccc4nc4ccccc34)c3ccccc3nc2c1`: the T/C by setting is: (dose: 20.0 mg/kg/injection, schedule: Q01DX010 (sc), vehicle: Klucel (hydroxypropylcellulose) (HPC)) 106 % of control; (dose: 40.0 mg/kg/injection, schedule: Q01DX010 (sc), vehicle: Klucel (hydroxypropylcellulose) (HPC)) 107 % of control; (dose: 80.0 mg/kg/injection, schedule: Q01DX010 (sc), vehicle: Klucel (hydroxypropylcellulose) (HPC)) 100 % of control; (dose: 160.0 mg/kg/injection, schedule: Q01DX010 (sc), vehicle: Klucel (hydroxypropylcellulose) (HPC)) 99 % of control.

For `COc1ccc(Cl)[n+]([O-])n1`, the T/C (dose: 25.0 mg/kg/injection, schedule: Q04DX003 (sc), vehicle: Klucel (hydroxypropylcellulose) (HPC)) is 119 % of control; the T/C (dose: 50.0 mg/kg/injection, schedule: Q04DX003 (sc), vehicle: Klucel (hydroxypropylcellulose) (HPC)) is 111 % of control; the T/C (dose: 100.0 mg/kg/injection, schedule: Q04DX003 (sc), vehicle: Klucel (hydroxypropylcellulose) (HPC)) is 106 % of control.

In the case of `CO[C@@]12[C@@H]3N[C@@H]3CN1C1=C(C(=O)C(N3CCCC3)=C(C)C1=O)[C@@H]2COC(N)=O`, the T/C was 6 % of control and 12 % of control (dose: 1.5 mg/kg/injection, schedule: Q04DX003 (ip), vehicle: saline with Tween-80); -98 % of control (dose: 12.0 mg/kg/injection, schedule: Q04DX003 (ip), vehicle: saline with Tween-80).

Take `O=C(CN1CCOCC1)Nc1nc(-c2ccc(Cl)cc2)cs1`: the T/C (dose: 150.0 mg/kg/injection, schedule: Q04DX003 (ip), vehicle: other) was 96 % of control; the T/C (dose: 600.0 mg/kg/injection, schedule: Q04DX003 (ip), vehicle: other) was 71 % of control; the T/C (dose: 1200.0 mg/kg/injection, schedule: Q04DX003 (ip), vehicle: other) is 60 % of control.

`NC(=O)C1C=CN(Cc2ccccc2)C=C1`: the T/C runs as follows: (dose: 100.0 mg/kg/injection, schedule: Q04DX003 (ip), vehicle: saline with Tween-80) 62 % of control; (dose: 200.0 mg/kg/injection, schedule: Q04DX003 (ip), vehicle: saline with Tween-80) 64 % of control.

Take `CC1(C)COCN1COCCOCN1COCC1(C)C`: the T/C runs as follows: under setting [1], 77 % of control; under setting [2], 83 % of control.

In the case of `CC(/C=N/N=C(N)N)=N\N=C(N)N`, the T/C is, setting by setting: (dose: 25.0 mg/kg/injection, schedule: Q01DX010 (sc), vehicle: water) 167 % of control; (dose: 50.0 mg/kg/injection, schedule: Q01DX010 (sc), vehicle: water) 73 % of control; (dose: 100.0 mg/kg/injection, schedule: Q01DX010 (sc), vehicle: water) 43 % of control.

For `O=P1(N(CCCl)CCCl)NCCCO1` (centres undefined), the T/C runs as follows: (dose: 25.0 mg/kg/injection, schedule: Q01DX010 (sc), vehicle: saline) 3 % of control; (dose: 25.0 mg/kg/injection, schedule: Q04DX003 (ip), vehicle: saline) 1 % of control and -23 % of control; (dose: 50.0 mg/kg/injection, schedule: Q01DX010 (sc), vehicle: saline) -11 % of control; (dose: 50.0 mg/kg/injection, schedule: Q04DX003 (ip), vehicle: saline) -88 % of control and -100 % of control; under setting [3], -95 % of control; (dose: 200.0 mg/kg/injection, schedule: Q04DX003 (ip), vehicle: saline) -73 % of control.

With `CC(=O)NCCSSCCCCS(=O)O`, the T/C is 110 % of control under setting [4] and 112 % of control under setting [5].

As for `OCC(O)C(O)C(O)C(O)CO` (centres undefined), the T/C is 75 % of control (dose: 75.0 mg/kg/injection, schedule: Q04DX003 (ip), vehicle: saline); 103 % of control under setting [4]; 91 % of control under setting [5]; 94 % of control (dose: 600.0 mg/kg/injection, schedule: Q04DX003 (ip), vehicle: saline); 70 % of control (dose: 1200.0 mg/kg/injection, schedule: Q04DX003 (ip), vehicle: saline).

Consider `Oc1cccc2ccccc12`, for which the T/C (dose: 150.0 mg/kg/injection, schedule: Q04DX003 (ip), vehicle: water) was 81 % of control.

As for `S=C(N/N=C1/CCCC/C1=N/NC(=S)N1CCOCC1)N1CCOCC1`, the T/C reads like this: (dose: 6.25 mg/kg/injection, schedule: Q04DX003 (ip), vehicle: saline with Tween-80) 81 % of control; (dose: 12.5 mg/kg/injection, schedule: Q04DX003 (ip), vehicle: saline with Tween-80) 76 % of control; (dose: 25.0 mg/kg/injection, schedule: Q04DX003 (ip), vehicle: saline with Tween-80) 48 % of control.

Consider `CC[C@@]1(O)C(=O)OCc2c1cc1n(c2=O)Cc2cc3c(N)cccc3nc2-1`, for which the T/C is 6 % of control (dose: 0.72 mg/kg/injection, schedule: Q04DX003 (ip), vehicle: saline with Tween-80); -97 % of control (dose: 1.0 mg/kg/injection, schedule: Q04DX003 (ip), vehicle: saline with Tween-80); -30 % of control (dose: 1.2 mg/kg/injection, schedule: Q04DX003 (ip), vehicle: saline with Tween-80); -92 % of control and -100 % of control (dose: 2.0 mg/kg/injection, schedule: Q04DX003 (ip), vehicle: saline with Tween-80); -100 % of control (dose: 3.33 mg/kg/injection, schedule: Q04DX003 (ip), vehicle: saline with Tween-80).

For the molecule `CCOC(=O)NC1=C(N2CC2)C(=O)C(NC(=O)OCC)=C(N2CC2)C1=O`, the T/C runs as follows: (dose: 1.56 mg/kg/injection, schedule: Q01DX010 (sc), vehicle: saline) 45 % of control; (dose: 3.13 mg/kg/injection, schedule: Q01DX010 (sc), vehicle: saline) 13 % of control; (dose: 6.25 mg/kg/injection, schedule: Q01DX010 (sc), vehicle: saline) -75 % of control.

`Nc1cc2c(cc1Br)-c1c(C(=O)O)cccc1C2O` (centres undefined): the T/C is 97 % of control (dose: 150.0 mg/kg/injection, schedule: Q04DX003 (ip), vehicle: sodium bicarbonate); 94 % of control (dose: 300.0 mg/kg/injection, schedule: Q04DX003 (ip), vehicle: sodium bicarbonate); 101 % of control (dose: 600.0 mg/kg/injection, schedule: Q04DX003 (ip), vehicle: sodium bicarbonate); 92 % of control (dose: 1200.0 mg/kg/injection, schedule: Q04DX003 (ip), vehicle: sodium bicarbonate).

On to `CSc1ncnc2c1ncn2C1OC(CO)C(O)C1O` (centres undefined), for which the T/C (dose: 75.0 mg/kg/injection, schedule: Q04DX003 (sc), vehicle: saline + alcohol) was 1 % of control and the T/C (dose: 150.0 mg/kg/injection, schedule: Q04DX003 (sc), vehicle: saline + alcohol) was -97 % of control.

On to `CC1Oc2cc3c(-c4c(O)cc(O)c5c(O)c6c(cc45)OC(C)C(C)C6=O)c(O)cc(O)c3c(O)c2C(=O)C1C` (centres undefined), for which the T/C is, setting by setting: (dose: 9.0 mg/kg/injection, schedule: Q04DX003 (ip), vehicle: suspension in saline) 21 % of control; (dose: 12.0 mg/kg/injection, schedule: Q04DX003 (ip), vehicle: suspension in saline) 15 % of control.

As for `Brc1c(NC2=NCCN2)ccc2nccnc12`, the T/C (dose: 50.0 mg/kg/injection, schedule: Q04DX003 (sc), vehicle: saline) is 69 % of control; the T/C under setting [3] is 57 % of control; the T/C under setting [1] was 41 % of control; the T/C under setting [2] was 23 % of control.

As for `CC1(C)OCC2OC=CC(=O)C2O1` (centres undefined), the T/C (dose: 150.0 mg/kg/injection, schedule: Q04DX003 (sc), vehicle: saline) is 110 % of control; the T/C (dose: 300.0 mg/kg/injection, schedule: Q04DX003 (sc), vehicle: saline) is 97 % of control; the T/C (dose: 600.0 mg/kg/injection, schedule: Q04DX003 (sc), vehicle: saline) is 74 % of control.
